Measured values published in patent US10253075B2, “WT1 antigenic polypeptide, and anti-tumor agent containing said polypeptide” (Tella, Inc., priority 2014, dated 2019).

Assays:
Type in all cases: cell-based, human
[1] = test system: CD8-positive T cells (CTL); test: Induction of antigen-specific CTL from PBMC; IFN-γ intracellular staining (ICS); set-up: key to induction of antigen-specific T cells: The symbol “+” in Table 7 indicates that the induction of antigen-specific T cells was observed; the symbol “−” indicates that the induction of antigen-specific T cells was not observed; conditions: for best peptide (%) / induction efficiency (%): CD8; for best peptide (%): percentage of the 6 kinds of PBMCs in which the peptide was evaluated as best peptide; for induction efficiency (%): proportion of the 6 kinds of donor PBMCs induced to antigen-specific T cells; for induction of antigen-specific T cells: induced T cell CD8, polypeptide 5 μM, IFN-γ-producing cells, day 21; for best peptide: highest ratio of antigen-specific IFN-γ-producing cells
Experimental: (§1) From the blood that was donated from 6 healthy human volunteers, human peripheral blood mononuclear cells (PBMC) were separated using a Ficoll-Paque (manufactured by Amersham Bioscience Inc.). The separated PBMC was cultured at 37° C. for 1 hour in a cell culture flask (manufactured by ED Biosciences) in a CO2 incubator using a serum-free AIM-V medium, thereby to remove non-adherent cells. Then, adherent cells remaining on the flask were started to culture in the AIM-V medium in the presence of a recombinant GM-CSF (10 ng/ml, manufactured by Wako Company) and a recombinant IL-4 (10 ng/ml, manufactured by Wako Company). After 3 days from the start of culture, the medium was replaced by an AIM-V medium supplemented with GM-CSF and IL-4, and dendritic cells (DC) were recovered using trypsin after 7 days from the start of culture. These DCs were used as antigen-presenting cells (APC) in the induction of antigen-specific T cells or in the analysis of antigen-specific cytokine (IFN-γ) production from T cells.
(§2) The foregoing PBMCs separated from healthy human volunteers were seeded to a density of 2×10^6 cells/well in a 24-well plate (manufactured by BD Biosciences). Then, culturing the cells were started in an AIM-V medium (1 ml/well) supplemented with each polypeptide (5 μM) derived from the WT1 protein described above inducing antigen-specific T cells, and serum at 37° C. in a CO2 incubator.
(§3) After 7 days from the start of culture, the above DC (autologous DC) was added to PBMC having the same derivation. Further, the medium was replaced with a serum-free AIM-V medium (manufactured by Life Technologies Inc.) supplemented with OK-432 (0.1 KE/ml, trade name: picibanil, manufactured by Chugai Pharmaceutical Co., Ltd.), and culture was performed for 2 hours. It should be noted that picibanil (OK-432) is a formulation obtained by treating an attenuated natural mutant strain (Su strain) of Group A Streptococcus with penicillin, and it is known that various cytokines (immune factor) are produced with use of picibanil to elicit an immune enhancing effect.
(§4) Then, after 2 hours of culture, the cells were treated for 50 minutes with addition of mitomycin C (MMC, manufactured by Kyowa Hakko Kirin Co., Ltd.). Furthermore, co-culture was performed in an AIM-V medium containing autologous DC and 5% human AB serum in which T cells are inactivated (Hokkaido Red Cross Center) in the presence of each polypeptide (5 μM) for inducing the antigen-specific T cells, thereby to re-stimulate the T cells. Two days later, a recombinant IL-2 (manufactured by Shionogi Pharmaceutical Institute Co., Ltd.) was added thereto to a final concentration of 10 U/ml. After 14 days from the start of co-culture, the autologous DC was pulsed with each polypeptide (5 μM) for inducing the antigen-specific T cells for 2 hours, and then treated with MMC. Such MMC treated cells as APC were used for re-stimulating T cells. In addition, on or after 14 days from the start of co-culture, culture was performed at the concentration of 20 U/ml of recombinant IL-2. After that, T cells on day 21 of the co-culture were collected by centrifugation or the like and subjected to an analysis of antigen-specific reactivity shown below.
(§5) T cells that were induced as described above (T cells on day 21 of the co-culture) and autologous DCs were seeded in the same well of a 96-well plate (manufactured by BD Biosciences) to a density of 5×10^4 cells/well and 5×10^3 cells/well, respectively. Then, the cells were cultured in the presence of each polypeptide (HE 4, KE 1, KE 5, H/K-HELP 1, H/K-HELP 2 or H/K-HELP 3) (5 μM) for the analysis of antigen-specific reactivity. In addition, a group without addition of such polypeptide was prepared as a control group. […]

[2] = test system: CD4-positive T cells and CD8-positive T cells; test: Induction of antigen-specific T cells from PBMC, CD4 and CD8 taken together; conditions: for best peptide (%): CD4 + CD8, percentage of PBMCs in which the peptide was evaluated as best peptide
Experimental: as §1, §2, §3
Then, after 2 hours of culture, the cells were treated for 50 minutes with addition of mitomycin C (MMC, manufactured by Kyowa Hakko Kirin Co., Ltd.). Furthermore, co-culture was performed in an AIM-V medium containing autologous DC and 5% human AB serum in which T cells are inactivated (Hokkaido Red Cross Center) in the presence of each polypeptide (5 μM) for inducing the antigen-specific T cells, thereby to re-stimulate the T cells. Two days later, a recombinant IL-2 (manufactured by Shionogi Pharmaceutical Institute Co., Ltd.) was added thereto to a final concentration of 10 U/ml. […]

[3] = test system: CD4-positive T cells (Th cells); test: Induction of antigen-specific Th cells from PBMC; IFN-γ intracellular staining (ICS); set-up: key to induction of antigen-specific T cells: The symbol “+” in Table 7 indicates that the induction of antigen-specific T cells was observed; the symbol “−” indicates that the induction of antigen-specific T cells was not observed; conditions: for best peptide (%) / induction efficiency (%): CD4; for best peptide (%): percentage of the 6 kinds of PBMCs in which the peptide was evaluated as best peptide; for induction efficiency (%): proportion of the 6 kinds of donor PBMCs induced to antigen-specific T cells; for induction of antigen-specific T cells: induced T cell CD4, polypeptide 5 μM, IFN-γ-producing cells, day 21; for best peptide: highest ratio of antigen-specific IFN-γ-producing cells
Experimental: as §1, §2, §3, §4, §5

| Sequence | best peptide (%) [1] [%] | induction efficiency (%) [1] [%] | induction of antigen-specific T cells ([1]; donor 1 PBMC) | induction of antigen-specific T cells ([1]; donor 2 PBMC) | induction of antigen-specific T cells ([1]; donor 3 PBMC) | induction of antigen-specific T cells ([1]; donor 4 PBMC) | induction of antigen-specific T cells ([1]; donor 5 PBMC) | induction of antigen-specific T cells ([1]; donor 6 PBMC) | best peptide (%) [2] [%] | best peptide (%) [3] [%] | induction efficiency (%) [3] [%] | induction of antigen-specific T cells ([3]; donor 1 PBMC) | induction of antigen-specific T cells ([3]; donor 2 PBMC) | induction of antigen-specific T cells ([3]; donor 3 PBMC) | induction of antigen-specific T cells ([3]; donor 4 PBMC) | induction of antigen-specific T cells ([3]; donor 5 PBMC) | induction of antigen-specific T cells ([3]; donor 6 PBMC) | also measured |
| --- | --- | --- | --- | --- | --- | --- | --- | --- | --- | --- | --- | --- | --- | --- | --- | --- | --- | --- |
| KRYFKLSHLQMHSRKHGGGGGRMFPNAPYL (Fusion polypeptide in which HE4, 5-Glycine linker and KE1 are fused in this order from the N-terminal) [H/K-HELP1, fused polypeptide: HE4, five-glycine linker, KE1 from the N-terminus] | 0.00 | 16.67 | − | − | − | − | + | − | 0.00 | 0.00 | 33.33 | + | − | − | − | + | − | activity of inducing antigen-specific T cells in CD4-positive and CD8-positive T cells, comparison in words ([2]; compared with Comparative Example 1 (mix of the epitopes), 6 donors): not different from those of Comparative Example 1 |
| KRYFKLSHLQMHSRKHGGGGGRMFPNAPYLGGGGGCYTWNQMNL (Fusion polypeptide in which HE4, 5-Glycine linker, KE1, 5-Glycine linker and KE5 are fused in this order from the N-terminal) [H/K-HELP2, fused polypeptide: HE 4, KE 1 and KE 5 from the N-terminus with five-glycine linkers] | 33.33 | 50.00 | + | − | + | − | − | + | 33.33 | 33.33 | 50.00 | − | + | + | − | + | − | best peptide ([1]; donor 1, CD8): H/K-HELP2; best peptide ([1]; donor 6, CD8): H/K-HELP2; best peptide ([3]; donor 2, CD4): H/K-HELP2; best peptide ([3]; donor 3, CD4): H/K-HELP2 |
| RMFPNAPYLGGGGGKRYFKLSHLQMHSRKHGGGGGCYTWNQMNL (Fusion polypeptide in which KE1, 5-Glycine linker, HE4, 5-Glycine linker and KE5 are fused in this order from the N-terminal) [H/K-HELP3, fused polypeptide: KE 1, HE 4 and KE 5 from the N-terminus with five-glycine linkers] | 50.00 | 50.00 | − | − | + | + | + | − | 50.00 | 50.00 | 66.67 | + | − | + | + | + | − | best peptide ([1]; donor 3, CD8): H/K-HELP3; best peptide ([1]; donor 4, CD8): H/K-HELP3; best peptide ([1]; donor 5, CD8): H/K-HELP3; stimulation of CD4-positive T cells of different derivation to induce IFN-γ-producing Th1 cells, comparison in words ([3]; compared with Example 1, 6 donors): more numerous CD4-positive T cells of different derivation are stimulated, as compared to Example 1; best peptide ([3]; donor 1, CD4): H/K-HELP3; best peptide ([3]; donor 4, CD4): H/K-HELP3; best peptide ([3]; donor 5, CD4): H/K-HELP3 |
